Laboratory results: PubChem BioAssay (NCI)
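Cultured in 96-well plates, cells were exposed to test compound for 48 hours across five concentrations. The concentration for 50% growth inhibition is given as GI50. TGI marks complete inhibition of growth.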

How the values were obtained:
Assay in all cases: DTP human tumour cell line panel, 48 h
786-0 renal = system: 786-0 renal
A498 renal = system: A498 renal
A549 NSCLC = system: A549 NSCLC
ACHN renal = system: ACHN renal
BT-549 breast = system: BT-549 breast
CAKI-1 renal = system: CAKI-1 renal
CCRF-CEM leukemia = system: CCRF-CEM leukemia
COLO 205 colon = system: COLO 205 colon
DU-145 prostate = system: DU-145 prostate
EKVX NSCLC = system: EKVX NSCLC
HCC-2998 colon = system: HCC-2998 colon
HCT-116 colon = system: HCT-116 colon
HCT-15 colon = system: HCT-15 colon
HL-60(TB) leukemia = system: HL-60(TB) leukemia
HOP-62 NSCLC = system: HOP-62 NSCLC
HOP-92 NSCLC = system: HOP-92 NSCLC
HS 578T breast = system: HS 578T breast
HT29 colon = system: HT29 colon
IGROV1 ovarian = system: IGROV1 ovarian
K-562 leukemia = system: K-562 leukemia
KM12 colon = system: KM12 colon
LOX IMVI melanoma = system: LOX IMVI melanoma
M14 melanoma = system: M14 melanoma
MALME-3M melanoma = system: MALME-3M melanoma
MCF7 breast = system: MCF7 breast
MDA-MB-231 breast = system: MDA-MB-231 breast
MDA-MB-435 = system: MDA-MB-435
MOLT-4 leukemia = system: MOLT-4 leukemia
NCI-H226 lung = system: NCI-H226 lung
NCI-H23 lung = system: NCI-H23 lung
NCI-H460 lung = system: NCI-H460 lung
NCI-H522 lung = system: NCI-H522 lung
NCI/ADR-RES ovarian = system: NCI/ADR-RES ovarian
OVCAR-3 ovarian = system: OVCAR-3 ovarian
OVCAR-4 ovarian = system: OVCAR-4 ovarian
OVCAR-5 ovarian = system: OVCAR-5 ovarian
OVCAR-8 ovarian = system: OVCAR-8 ovarian
PC-3 prostate = system: PC-3 prostate
RPMI-8226 leukemia = system: RPMI-8226 leukemia
RXF 393 renal = system: RXF 393 renal
SF-268 CNS = system: SF-268 CNS
SF-295 CNS = system: SF-295 CNS
SF-539 CNS = system: SF-539 CNS
SK-MEL-2 melanoma = system: SK-MEL-2 melanoma
SK-MEL-28 melanoma = system: SK-MEL-28 melanoma
SK-MEL-5 melanoma = system: SK-MEL-5 melanoma
SK-OV-3 ovarian = system: SK-OV-3 ovarian
SN12C renal = system: SN12C renal
SNB-19 CNS = system: SNB-19 CNS
SNB-75 CNS = system: SNB-75 CNS
SR leukemia = system: SR leukemia
SW-620 colon = system: SW-620 colon
T-47D breast = system: T-47D breast
U251 CNS = system: U251 CNS
UACC-257 melanoma = system: UACC-257 melanoma
UACC-62 melanoma = system: UACC-62 melanoma
UO-31 renal = system: UO-31 renal

`Cc1sc2c(c1C)C(c1ccc(Cl)cc1)=N[C@@H](CC(=O)NCCCN1CCN(C)CC1)c1nnc(C)n1-2` was tested, and the GI50 (786-0 renal) was 5.48 µM, the TGI (786-0 renal) was over 100 µM and the GI50 (A498 renal) was 0.271 µM. The TGI (A498 renal) was 7.78 µM, the GI50 (A549 NSCLC) was 3.22 µM and the TGI (A549 NSCLC) was over 100 µM. It also gave a GI50 (ACHN renal) of 17.1 µM, a TGI (ACHN renal) of over 100 µM and a GI50 (BT-549 breast) of 3.51 µM. For the same compound, the TGI (BT-549 breast) was over 100 µM, the GI50 (CAKI-1 renal) was 0.684 µM and the TGI (CAKI-1 renal) was over 100 µM. For the same compound, the GI50 (CCRF-CEM leukemia) was 1.6 µM, the TGI (CCRF-CEM leukemia) was over 100 µM and the GI50 (COLO 205 colon) was 0.0995 µM. It also gave a TGI (COLO 205 colon) of over 100 µM, a GI50 (DU-145 prostate) of over 100 µM and a TGI (DU-145 prostate) of over 100 µM. It also gave a GI50 (EKVX NSCLC) of over 34.6 µM, a TGI (EKVX NSCLC) of over 100 µM and a GI50 (HCC-2998 colon) of 2.55 µM. The TGI (HCC-2998 colon) was over 100 µM, the GI50 (HCT-116 colon) was 0.579 µM and the TGI (HCT-116 colon) was over 100 µM. The GI50 (HCT-15 colon) was 16.8 µM, the TGI (HCT-15 colon) was over 100 µM and the GI50 (HL-60(TB) leukemia) was 0.0583 µM. For the same compound, the TGI (HL-60(TB) leukemia) was 5.7 µM, the GI50 (HOP-62 NSCLC) was 0.352 µM and the TGI (HOP-62 NSCLC) was over 100 µM. For the same compound, the GI50 (HOP-92 NSCLC) was 0.032 µM, the TGI (HOP-92 NSCLC) was over 25.2 µM and the GI50 (HS 578T breast) was 0.216 µM. The TGI (HS 578T breast) was over 22.7 µM, the GI50 (HT29 colon) was 0.198 µM and the TGI (HT29 colon) was over 100 µM. It also gave a GI50 (IGROV1 ovarian) of 0.618 µM, a TGI (IGROV1 ovarian) of over 100 µM and a GI50 (K-562 leukemia) of 0.299 µM. The TGI (K-562 leukemia) was over 100 µM, the GI50 (KM12 colon) was 19.6 µM and the TGI (KM12 colon) was over 100 µM. It also gave a GI50 (LOX IMVI melanoma) of 0.362 µM, a TGI (LOX IMVI melanoma) of over 69.9 µM and a GI50 (M14 melanoma) of 1.24 µM. The TGI (M14 melanoma) was over 100 µM, the GI50 (MALME-3M melanoma) was 0.992 µM and the TGI (MALME-3M melanoma) was over 100 µM. The GI50 (MCF7 breast) was 0.0564 µM, the TGI (MCF7 breast) was over 100 µM and the GI50 (MDA-MB-231 breast) was 0.198 µM. For the same compound, the TGI (MDA-MB-231 breast) was over 100 µM, the GI50 (MDA-MB-435) was 0.621 µM and the TGI (MDA-MB-435) was over 100 µM. It also gave a GI50 (MOLT-4 leukemia) of 22.2 µM, a TGI (MOLT-4 leukemia) of over 100 µM and a TGI (NCI-H226 lung) of over 100 µM. It also gave a GI50 (NCI-H23 lung) of 5.67 µM, a TGI (NCI-H23 lung) of over 100 µM and a GI50 (NCI-H460 lung) of over 63.2 µM. The TGI (NCI-H460 lung) was over 100 µM, the GI50 (NCI-H522 lung) was 0.0746 µM and the TGI (NCI-H522 lung) was over 100 µM. For the same compound, the GI50 (NCI/ADR-RES ovarian) was over 100 µM, the TGI (NCI/ADR-RES ovarian) was over 100 µM and the GI50 (OVCAR-3 ovarian) was 1.33 µM. It also gave a TGI (OVCAR-3 ovarian) of over 100 µM, a GI50 (OVCAR-4 ovarian) of 0.748 µM and a TGI (OVCAR-4 ovarian) of over 100 µM. It also gave a GI50 (OVCAR-5 ovarian) of 1.99 µM, a TGI (OVCAR-5 ovarian) of over 100 µM and a GI50 (OVCAR-8 ovarian) of 4.96 µM. It also gave a TGI (OVCAR-8 ovarian) of over 100 µM, a GI50 (PC-3 prostate) of 1.05 µM and a TGI (PC-3 prostate) of over 100 µM. For the same compound, the GI50 (RPMI-8226 leukemia) was 0.0417 µM, the TGI (RPMI-8226 leukemia) was 5.38 µM and the GI50 (RXF 393 renal) was 2.08 µM. It also gave a TGI (RXF 393 renal) of over 100 µM, a GI50 (SF-268 CNS) of 30.3 µM and a TGI (SF-268 CNS) of over 100 µM. For the same compound, the GI50 (SF-295 CNS) was 8.12 µM, the TGI (SF-295 CNS) was over 100 µM and the GI50 (SF-539 CNS) was 0.607 µM. It also gave a TGI (SF-539 CNS) of over 100 µM, a GI50 (SK-MEL-2 melanoma) of over 44.6 µM and a TGI (SK-MEL-2 melanoma) of over 100 µM. For the same compound, the GI50 (SK-MEL-28 melanoma) was over 30 µM, the TGI (SK-MEL-28 melanoma) was over 100 µM and the GI50 (SK-MEL-5 melanoma) was 6.36 µM. The TGI (SK-MEL-5 melanoma) was over 100 µM, the GI50 (SK-OV-3 ovarian) was 0.309 µM and the TGI (SK-OV-3 ovarian) was over 42.3 µM. For the same compound, the GI50 (SN12C renal) was 7.36 µM, the TGI (SN12C renal) was over 100 µM and the GI50 (SNB-19 CNS) was 0.987 µM. It also gave a TGI (SNB-19 CNS) of over 100 µM, a GI50 (SNB-75 CNS) of under 0.0106 µM and a TGI (SNB-75 CNS) of 0.16 µM. It also gave a GI50 (SR leukemia) of 0.108 µM, a TGI (SR leukemia) of over 100 µM and a GI50 (SW-620 colon) of over 100 µM. It also gave a TGI (SW-620 colon) of over 100 µM, a GI50 (T-47D breast) of 0.287 µM and a TGI (T-47D breast) of over 100 µM. For the same compound, the GI50 (U251 CNS) was 8.88 µM, the TGI (U251 CNS) was over 100 µM and the GI50 (UACC-257 melanoma) was 3.26 µM. It also gave a TGI (UACC-257 melanoma) of over 100 µM, a GI50 (UACC-62 melanoma) of 0.214 µM and a TGI (UACC-62 melanoma) of over 100 µM. It also gave a GI50 (UO-31 renal) of 3.83 µM and a TGI (UO-31 renal) of over 100 µM.
